The record followed here is patent publication EP0441226A1, “(cyanomethyl)pyridines useful as PAF antagonists” (J. URIACH & CIA. S.A., priority 1990, dated 1991).

Counter-ions that a name gives are not always drawn. Like-named read-outs stand apart in the source and are kept apart here.

This experiment concerns hypotension induced by PAF. Nature of the experiment: Inhibition of the hypotensive effect induced by PAF in normotense rats. Format: in vivo, Sprage Dawley rats. The conditions noted are these: Rattus norvegicus, iv.
Setting [1] is: i.v. (femoral vein) 3 min before PAF 0.5 mcg/Kg i.v., anesthetized male rats, mean arterial pressure, read-out: ID50 (the source's name).

Procedure: Male Sprage Dawley rats, of 180-220 g of weight, anesthetized with sodium pentobarbital (50 mg/Kg, i.p. 1 mU100 g) have been used. In order to measure the average arterial pressure, a polyethylene catheter is introduced into the carotid artery. The arterial pressure is recorded with the help of a transducer connected with a R611 Beckman polygraph. The tested compounds are administered through the femoral vein 3 min. before the injection of PAF (0.5 mcg/Kg, i.v.).

On to `Cl.Cl.N#CC(c1cccnc1)N1CCN(C(=O)c2ccc3ccccc3c2)CC1` (stereo not shown) [Compound 1, 1-(2-Naphthoyl)-4-(3-pyridylcyanomethyl)piperazine, dihydrochloride], for which, under setting [1], the ED50 is 5 mg/kg. `N#CC(c1cccnc1)N1CCN(C(=O)Cc2cccc3ccccc23)CC1` (stereo not shown) [Compound 2, 1-(1-Naphthylacetyl)-4-(3-pyridylcyanomethyl)piperazine]: for the setting “read-out: ID50”, the ED50 is 1.3 mg/kg. For the molecule `N#CC(c1cccnc1)N1CCN(C(=O)Cc2ccccc2)CC1` (stereo not shown) [Compound 5, 1-(Phenylacetyl)-4-(3-pyridylcyanomethyl)piperazine], the ED50 (read-out: ID50) came out at 1.5 mg/kg.

As for `N#CC(c1cccnc1)N1CCN(C(=O)CCc2ccccc2)CC1` (stereo not shown) [Compound 6, 1-(3-Phenylpropanoyl)-4-(3-pyridylcyanomethyl)piperazine, dichlorhydrate], the ED50 under setting [1] came out at 1.2 mg/kg. For `N#CC(c1cccnc1)N1CCN(C(=O)CCCc2ccccc2)CC1` (stereo not shown) [Compound 7, 1-(4-Phenylbutanoyl)-4-(3-pyridylcyanomethyl)piperazine], the ED50 under setting [1] is 5 mg/kg.

Turning to `CC(C(=O)N1CCN(C(C#N)c2cccnc2)CC1)(c1ccccc1)c1ccccc1.Cl.Cl` (stereo not shown) [Compound 8, 1-(2,2-Diphenylpropanoyl)-4-(3-pyridylcyanomethyl)piperazine, dihydrochloride], the ED50 under setting [1] was determined as 0.14 mg/kg. Consider `Cl.Cl.N#CC(c1cccnc1)N1CCN(C(=O)C(c2ccccc2)c2ccccc2)CC1` (stereo not shown) [Compound 9, 1-(Diphenylacetyl)-4-(3-pyridylcyanomethyl)piperazine, dihydrochloride], for which the ED50 under setting [1] was found to be 0.11 mg/kg. Regarding `N#CC(c1cccnc1)N1CCN(C(=O)C(Cc2ccccc2)c2ccccc2)CC1` (stereo not shown) [Compound 10, 1-(2,3-Diphenylpropanoyl)-4-(3-pyridylcyanomethyl)piperazine], under setting [1], the ED50 was 0.12 mg/kg.

Consider `N#CC(c1cccnc1)N1CCN(C(=O)C(CCc2ccccc2)c2ccccc2)CC1` (stereo not shown) [Compound 11, 1-(2,4-Diphenylbutanoyl)-4-(3-pyridylcyanomethyl)piperazine], for which, under setting [1], the ED50 was 0.73 mg/kg. Still for that read-out and setting: as for `N#CC(c1cccnc1)N1CCN(C(=O)CC(c2ccccc2)c2ccccc2)CC1` (stereo not shown) [Compound 12, 1-(3,3-Diphenylpropanoyl)-4-(3-pyridylcyanomethyl)piperazine], the figure is 0.016 mg/kg. As for `N#CC(c1cccnc1)N1CCN(C(=O)C(Cc2ccccc2)Cc2ccccc2)CC1` (stereo not shown) [Compound 13, 1-(2-Phenylmethyl-3-phenylpropanoyl)-4-(3-pyridylcyanomethyl) piperazine, dichlorhydrate], the ED50 under setting [1] was 0.68 mg/kg. `CC(C(=O)N1CCN(C(C#N)c2cccnc2)CC1)c1ccccc1.Cl.Cl` (stereo not shown) [Compound 14, 1-(2-Phenylpropanoyl)-4-(3-pyridylcyanomethyl)piperazine, dihydrochloride]: under setting [1], the ED50 stood at 0.26 mg/kg. Consider `N#CC(c1cccnc1)N1CCN(C(=O)C=Cc2ccccc2)CC1` (stereo not shown) [Compound 15, 1-(3-Phenylpropenoyl)-4-(3-pyridylcyanomethyl)piperazine, dichlorhydrate], for which, under setting [1], the ED50 amounted to 0.24 mg/kg. For the molecule `N#CC(c1cccnc1)N1CCN(C(=O)C(=Cc2ccccc2)c2ccccc2)CC1` (stereo not shown) [Compound 16, 1-(2,3-Diphenylpropenoyl)-4(3-pyridylcyanomethyl)piperazine], the ED50 under setting [1] turned out to be 0.17 mg/kg.

On to `N#CC(c1cccnc1)N1CCN(C(=O)C=C(c2ccccc2)c2ccccc2)CC1` (stereo not shown) [Compound 17, 1-(3,3-Diphenylpropenoyl)-4-(3-pyridylcyanomethyl)piperazine], for which the ED50 under setting [1] was determined as 0.049 mg/kg. On the same count and under the same terms, as for `CCCCCCCC(=O)N1CCN(C(C#N)c2cccnc2)CC1.Cl` (stereo not shown) [Compound 19, 1-(Octanoyl)-4-(3-pyridylcyanomethyl)piperazine hydrochloride], the figure is 1.2 mg/kg; as for `COc1cc(C(=O)N2CCN(C(C#N)c3cccnc3)CC2)cc(OC)c1OC.Cl.Cl` (stereo not shown) [Compound 22, 1-(3,4,5-Trimethoxybenzoyl)-4-(3-pyridylcyanomethyl)piperazine, dihydrochloride], 4.3 mg/kg; as for `COc1ccc(C(CC(=O)N2CCN(C(C#N)c3cccnc3)CC2)c2ccc(OC)cc2)cc1` (stereo not shown) [Compound 25, 1-(3,3-bis(4-methoxyphenyl)propanoyl)-4-(3-pyridylcyanomethyl) piperazine], 0.19 mg/kg.

Take `COc1ccc(C(=CC(=O)N2CCN(C(C#N)c3cccnc3)CC2)c2ccc(OC)cc2)cc1.Cl.Cl` (stereo not shown) [Compound 26, 1-(3,3-bis(4-methoxyphenyl)propenoyl)-4-(3-pyridylcyanomethyl)piperazine, dihydrochloride]: the ED50 under setting [1] was determined as 0.17 mg/kg. `Cl.Cl.N#CC(c1cccnc1)N1CCN(C(=O)C(O)c2ccccc2)CC1` (stereo not shown) [Compound 27, 1-(2-phenyl-2-hydroxyacetyl)-4-(3-pyridylcyanomethyl)piperazine, dihydrochloride]: the ED50 under setting [1] stood at 1.1 mg/kg. As for `N#CC(c1cccnc1)N1CCN(C(=O)CC(O)(c2ccccc2)c2ccccc2)CC1` (stereo not shown) [Compound 28, 1-(3,3-Diphenyl-3-hydroxypropanoyl)-4-(3-pyridylcyanomethyl)piperazine], the ED50 under setting [1] came out at 0.061 mg/kg. With `N#CC(c1ccncc1)N1CCN(C(=O)CC(O)(c2ccccc2)c2ccccc2)CC1` (stereo not shown) [Compound 29, 1-(3,3-Diphenyl-3-hydroxypropanoyl)-4-(4-pyridylcyanomethyl)piperazine], under setting [1], the ED50 was found to be 0.061 mg/kg. Turning to `Cl.Cl.N#CC(c1cccnc1)N1CCN(C(=O)OCC(c2ccccc2)c2ccccc2)CC1` (stereo not shown) [Compound 31, 1-((2,2-diphenylethoxy)carbonyl)-4-(3-pyridylcyanomethyl)piperazine, dihydrochloride], the ED50 under setting [1] came out at 0.078 mg/kg. Consider `Cl.Cl.Cl.N#CC(c1cccnc1)N1CCN(C(=O)Cc2c[nH]c3ccccc23)CC1` (stereo not shown) [Compound 33, 1-(3-indolylacetyl)-4-(3-pyridylcyanomethyl)piperazine, trihydrochloride], for which the ED50 (read-out: ID50) stood at 3.5 mg/kg.

In the case of `Cl.Cl.Cl.N#CC(c1cccnc1)N1CCN(C(=O)CNc2cccc3ccccc23)CC1` (stereo not shown) [Compound 34, 1-(N-(1-naphthyl)aminoacetyl)-4-(3-pyridylcyanomethyl)piperazine, trihydrochloride], the ED50 under setting [1] came to 3 mg/kg.

Consider `N#CC(c1cccnc1)N1CCN(C(=O)CN(Cc2ccccc2)c2ccccc2)CC1` (stereo not shown) [Compound 38, 1-(N-benzyl-N-phenylaminoacetyl)-4-(3-pyridylcyanomethyl)piperazine], for which the ED50 under setting [1] was determined as 0.42 mg/kg.

For `N#CC(c1cccnc1)N1CCN(C(=O)CN(CCCc2ccccc2)Cc2ccccc2)CC1` (stereo not shown) [Compound 41, 1-(N-benzyl-N-(3-phenylpropyl)aminoacetyl)-4-(3-pyridylcyanomethyl) piperazine, trihydrochloride], the ED50 under setting [1] came out at 1.5 mg/kg. On to `N#CC(c1cccnc1)N1CCN(C(=O)CNC(c2ccccc2)c2ccccc2)CC1` (stereo not shown) [Compound 44, 1-(N-(diphenylmethyl)aminoacetyl)-4-(3-pyridylcyanomethyl) piperazine, trihydrochloride], for which the ED50 under setting [1] is 0.023 mg/kg.

As for `CN(CC(=O)N1CCN(C(C#N)c2cccnc2)CC1)C(c1ccccc1)c1ccccc1` (stereo not shown) [Compound 45, 1-(N-diphenylmethyl-N-methylaminoacetyl)-4-(3-pyridylcyanomethyl) piperazine, trihydrochloride], the ED50 under setting [1] came out at 0.33 mg/kg.

For `N#CC(c1cccnc1)N1CCN(C(=O)CNC(c2ccccc2)c2ccc(Cl)cc2)CC1` (stereo not shown) [Compound 46, 1-(N-(1-(4-chlorophenyl)-1-phenylmethyl)aminoacetyl)-4-(3-pyridylcyanomethyl) piperazine, trihydrochloride], under setting [1], the ED50 was 0.13 mg/kg. The same measure, in the same setting: as for `N#CC(c1cccnc1)N1CCN(C(=O)CCNC(c2ccccc2)c2ccccc2)CC1` (stereo not shown) [Compound 47, 1-(3-(N-(diphenylmethyl)amino)propanoyl)-4-(3-pyridylcyanomethyl) piperazine], the figure is 0.025 mg/kg. On to `N#CC(c1ccncc1)N1CCN(C(=O)CCNC(c2ccccc2)c2ccccc2)CC1` (stereo not shown) [Compound 48, 1-(3-(N-(diphenylmethyl)amino)propanoyl)-4-(4-pyridylcyanomethyl)piperazine], for which the ED50 under setting [1] turned out to be 0.037 mg/kg. The same measure, in the same setting: then `Cl.Cl.Cl.N#CC(c1cccnc1)N1CCN(C(=O)CN(Cc2ccccc2)Cc2ccccc2)CC1` (stereo not shown) [Compound 49, 1-(N,N-dibenzylaminoacetyl)-4-(3-pyridylcyanomethyl)piperazine, trihydrochloride], with 1.7 mg/kg; and `Cl.Cl.Cl.N#CC(c1cccnc1)N1CCN(C(=O)CNC(Cc2ccccc2)c2ccccc2)CC1` (stereo not shown) [Compound 52, 1-(N-(1,2-diphenylethyl)aminoacetyl)-4-(3-pyridylcyanomethyl)piperazine, trihydrochloride], with 0.34 mg/kg; and `N#CC(c1ccncc1)N1CCN(C(=O)CNC(=O)C(c2ccccc2)c2ccccc2)CC1` (stereo not shown) [Compound 57, 1-(N-(diphenylacetyl)aminoacetyl)-4-(4-pyridylcyanomethyl)piperazine], with 0.47 mg/kg. Same read-out and setting: then `N#CC(c1cccnc1)N1CCN(CCNC(=O)C(c2ccccc2)c2ccccc2)CC1` (stereo not shown) [Compound 62, 1-(2-(N-(diphenylacetyl)amino)ethyl)-4-(3-pyridylcyanomethyl)piperazine], with 0.29 mg/kg; and `Cl.Cl.N#CC(c1ccncc1)N1CCN(C(=O)CC(c2ccccc2)c2ccccc2)CC1` (stereo not shown) [Compound 67, 1-(3,3-diphenylpropanoyl)-4-(4-pyridylcyanomethyl)piperazine, dihydrochloride], with 0.034 mg/kg.
